The results in this text go back to patent publication US20240199546A1, “INHIBITORS OF SOLUTE CARRIER FAMILY 6A MEMBER 19 (SLC6A19) AND METHODS OF USE THEREOF” (Maze Therapeutics, Inc., priority 2022, published 2024).

Assay [1] addresses T1, human SLC6A19 and TMEM27 (Homo sapiens, UniProt Q695T7).
T1 construct: expressed in transfected cells
T1 sequence (Q695T7 1-634): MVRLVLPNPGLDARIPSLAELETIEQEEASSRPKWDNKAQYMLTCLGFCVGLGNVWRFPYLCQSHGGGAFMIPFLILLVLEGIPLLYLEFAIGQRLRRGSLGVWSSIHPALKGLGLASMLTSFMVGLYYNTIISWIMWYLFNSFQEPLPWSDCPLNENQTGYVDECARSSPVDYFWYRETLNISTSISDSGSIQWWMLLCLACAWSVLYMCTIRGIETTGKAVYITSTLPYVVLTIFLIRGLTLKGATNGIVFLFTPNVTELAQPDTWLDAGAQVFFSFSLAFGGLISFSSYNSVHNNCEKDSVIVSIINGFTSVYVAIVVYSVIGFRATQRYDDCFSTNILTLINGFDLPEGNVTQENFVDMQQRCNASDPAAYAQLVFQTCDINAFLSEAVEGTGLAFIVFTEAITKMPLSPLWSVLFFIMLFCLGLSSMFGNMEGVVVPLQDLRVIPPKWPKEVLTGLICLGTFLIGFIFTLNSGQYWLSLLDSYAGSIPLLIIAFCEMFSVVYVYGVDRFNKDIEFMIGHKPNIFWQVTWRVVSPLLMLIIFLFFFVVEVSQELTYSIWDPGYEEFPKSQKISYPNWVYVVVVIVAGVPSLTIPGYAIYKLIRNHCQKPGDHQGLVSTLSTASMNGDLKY
T1 sequence (Q9HBJ8 15-222 partner): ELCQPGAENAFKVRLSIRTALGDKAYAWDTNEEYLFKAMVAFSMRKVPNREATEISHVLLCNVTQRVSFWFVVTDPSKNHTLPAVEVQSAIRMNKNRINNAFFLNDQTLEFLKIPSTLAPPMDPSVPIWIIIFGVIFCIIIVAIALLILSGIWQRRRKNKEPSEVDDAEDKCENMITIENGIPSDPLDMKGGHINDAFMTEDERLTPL
The experiment in a line: 13C6,15N-isoleucine uptake in CHO cells with doxycycline-inducible expression of human SLC6A19 and TMEM27, RapidFire mass spectrometry (Example B-2). In kind it is cell-based. The conditions noted are these: read-out: SLC6A19_RapidFire Uptake Assay IC50. In short, it runs like this:
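Read-out is RapidFire mass-spec peak area of 13C6,15N-isoleucine taken up over 20 min at 37 °C, after 20 min compound pre-exposure in pH 7.2 HEPES-buffered saline. Cells: doxycycline-induced CHO co-expressing human SLC6A19 and TMEM27; compounds as duplicate 10-point 2-fold dilutions, positive control setting 0% activity.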

The target in assay [2] is T1, human SLC6A19 and TMEM27. The experiment in a line: Radiolabelled (3H) leucine uptake in CHO cells with doxycycline-inducible expression of human SLC6A19 and TMEM27 (Example B-1). In kind it is cell-based. Conditions: CHO cells with doxycycline-inducible expression of human SLC6A19 and TMEM27, read-out: SLC6A19_Radioligand Uptake Assay IC50. In short, it runs like this: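 CHO cells were induced with doxycycline for 18 h at 37 °C, washed in HBSS, then exposed to compounds for 1 h: 8-point, 3-fold dilutions in duplicate, 0.5% DMSO final. Uptake measured by scintillation counting after 2 h shaking. Activity normalized with positive control as 0% and DMSO as 100%.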

`O=C(NCc1cc2cc(Cl)c(OCc3ccon3)cc2[nH]1)C1(C(F)(F)F)CC1` [Compound 134, N-((5-chloro-6-(isoxazol-3-ylmethoxy)-1H-indol-2-yl)methyl)-1-(trifluoromethyl)cyclopropane-1-carboxamide]: the figures for the IC50 in assay [1] and in assay [2] were 84 nM and 187 nM, respectively.
On to `CC1(C(=O)NCc2cc3cc(F)c(OCc4cccnc4F)cc3[nH]2)CC1` [Compound 332, N-((5-fluoro-6-((2-fluoropyridin-3-yl)methoxy)-1H-indol-2-yl)methyl)-1-methylcyclopropane-1-carboxamide], for which the IC50 in assay [1] came out at 187 nM; in assay [2], 269 nM.
For `CC1(C(=O)NCc2cc3cc(F)c(OCc4ccc5ccoc5c4)cc3[nH]2)CC1` [Compound 460, N-((6-(benzofuran-6-ylmethoxy)-5-fluoro-1H-indol-2-yl)methyl)-1-methylcyclopropane-1-carboxamide], in that order: 732 nM and 1360 nM.
For `Cc1cc(COc2cc3[nH]c(CNC(=O)C4(C)CC4)cc3cc2C(F)(F)F)no1` [Compound 58, 1-methyl-N-((6-((5-methylisoxazol-3-yl)methoxy)-5-(trifluoromethyl)-1H-indol-2-yl)methyl)cyclopropanecarboxamide], in that order: 28 nM and 162 nM.
With `CC1(C(=O)NCc2cc3cc(CC(F)(F)F)c(OCc4ccon4)cc3[nH]2)CC1` [Compound 649, N-((6-(isoxazol-3-ylmethoxy)-5-(2,2,2-trifluoroethyl)-1H-indol-2-yl)methyl)-1-methylcyclopropane-1-carboxamide], the IC50 in assay [1] is 217 nM; in assay [2] it was 326 nM.
`Cc1cnc(COc2cc3[nH]c(CNC(=O)C4(C)CC4)cc3cc2Cl)o1` [Compound 70, N-((5-chloro-6-((5-methyloxazol-2-yl)methoxy)-1H-indol-2-yl)methyl)-1-methylcyclopropane-1-carboxamide]: the values for the IC50 in assay [1] and in assay [2] were 62 nM and 117 nM, respectively.
On to `Cc1nc(COc2cc3[nH]c(CNC(=O)N4CCC4)cc3cc2Cl)co1` [Compound 408, N-((5-chloro-6-((2-methyloxazol-4-yl)methoxy)-1H-indol-2-yl)methyl)azetidine-1-carboxamide], for which the figures for the IC50 in assay [1] and in assay [2] were 498 nM and 478 nM, respectively.
`Cn1ncc(COc2cc3[nH]c(CNC(=O)C4(C)CC4)cc3cc2F)n1` [Compound 496, N-((5-fluoro-6-((2-methyl-2H-1,2,3-triazol-4-yl)methoxy)-1H-indol-2-yl)methyl)-1-methylcyclopropane-1-carboxamide]: the results for the IC50 in assay [1] and in assay [2] were 424 nM and 430 nM, respectively.
Regarding `O=C(NCc1cc2cc(F)c(CCc3ccon3)cc2[nH]1)N1CCC1` [Compound 602, N-((5-fluoro-6-(2-(isoxazol-3-yl)ethyl)-1H-indol-2-yl)methyl)azetidine-1-carboxamide], the IC50 in assay [1] was determined as 609 nM; in assay [2] it was 820 nM.
As for `CC(=O)NCc1cc2cc(F)c(OCc3cc(C)no3)cc2[nH]1` [Compound 223, N-((5-fluoro-6-((3-methylisoxazol-5-yl)methoxy)-1H-indol-2-yl)methyl)acetamide], the results for the IC50 in assay [1] and in assay [2] were 796 nM and 203 nM, respectively.
As to `Cc1cc2cc(CNC(=O)N3CCC3)[nH]c2cc1OCc1cscn1` [Compound 528, N-((5-methyl-6-(thiazol-4-ylmethoxy)-1H-indol-2-yl)methyl)azetidine-1-carboxamide], the IC50 in assay [1] was 292 nM; in assay [2], 278 nM.
In the case of `CC1(C(=O)NCc2cc3ccc(CCc4cscn4)cc3[nH]2)CC1` [Compound 76, 1-methyl-N-((6-(2-(thiazol-4-yl)ethyl)-1H-indol-2-yl)methyl)cyclopropane-1-carboxamide], the IC50 in assay [1] amounted to 34 nM; in assay [2], 100 nM.
Take `CCC(=O)NCc1cc2cc(C)c(OCc3ccon3)cc2[nH]1` [Compound 530, N-((6-(isoxazol-3-ylmethoxy)-5-methyl-1H-indol-2-yl)methyl)propionamide]: the IC50 in assay [1] is 208 nM; in assay [2], 171 nM.
For the compound `CC(=O)NCc1cc2cc(Cl)c(OCc3cccc(F)n3)cc2[nH]1` [Compound 225, N-((5-chloro-6-((6-fluoropyridin-2-yl)methoxy)-1H-indol-2-yl)methyl)acetamide], the IC50 is 80.8 nM in assay [1] and 156 nM in assay [2].
Consider `O=C(NCc1cc2cc(Cl)c(OCc3cccc(F)n3)cc2[nH]1)N1CCC1` [Compound 402, N-((5-chloro-6-((6-fluoropyridin-2-yl)methoxy)-1H-indol-2-yl)methyl)azetidine-1-carboxamide], for which the figures for the IC50 in assay [1] and in assay [2] were 175 nM and 290 nM, respectively.
In the case of `Cc1csc(COc2cc3[nH]c(CNC(=O)C4(C)CC4)cc3cc2Cl)n1` [Compound 24, N-((5-chloro-6-((4-methylthiazol-2-yl)methoxy)-1H-indol-2-yl)methyl)-1-methylcyclopropane-1-carboxamide], the IC50 turned out to be 222 nM in assay [1] and 412 nM in assay [2].
Regarding `Cc1cc(COc2cc3[nH]c(CNC(=O)C4CC4)cc3cc2Cl)no1` [Compound 133, N-((5-chloro-6-((5-methylisoxazol-3-yl)methoxy)-1H-indol-2-yl)methyl)cyclopropanecarboxamide], the values for the IC50 in assay [1] and in assay [2] were 45 nM and 82 nM, respectively.
The like results for `CC1(C(=O)NCc2cc3cc(Cl)c(OCc4ccco4)cc3[nH]2)CC1` [Compound 66, N-((5-chloro-6-(furan-2-ylmethoxy)-1H-indol-2-yl)methyl)-1-methylcyclopropane-1-carboxamide] were, in that order, 27 nM and 70 nM.
As for `Cn1ncc(COc2cc3[nH]c(CNC(=O)N4CCC4)cc3cc2Cl)n1` [Compound 405, N-((5-chloro-6-((2-methyl-2H-1,2,3-triazol-4-yl)methoxy)-1H-indol-2-yl)methyl)azetidine-1-carboxamide], the IC50 in assay [1] was found to be 367 nM; in assay [2] it was 305 nM.
The like results for `Cc1cc(COc2cc3[nH]c(CNC(=O)N4CCCC4)cc3cc2Cl)on1` [Compound 83, N-((5-chloro-6-((3-methylisoxazol-5-yl)methoxy)-1H-indol-2-yl)methyl)pyrrolidine-1-carboxamide] were, in that order, 50 nM and 100 nM.
For `CC1(C(=O)NCc2cc3cc(Cl)c(CCc4cscn4)cc3[nH]2)CC1` [Compound 149, N-((5-chloro-6-(2-(thiazol-4-yl)ethyl)-1H-indol-2-yl)methyl)-1-methylcyclopropane-1-carboxamide], in that order: 34 nM and 85 nM.
`CC1(C(=O)NCc2cc3c(F)cc(OCc4ccon4)cc3[nH]2)CC1` [Compound 27, N-((4-fluoro-6-(isoxazol-3-ylmethoxy)-1H-indol-2-yl)methyl)-1-methylcyclopropane-1-carboxamide]: the values for the IC50 in assay [1] and in assay [2] were 92 nM and 84 nM, respectively.
As for `CC1(C(=O)NCc2cc3cc(Cl)c(OCc4ccno4)cc3[nH]2)CC1` [Compound 326, N-((5-chloro-6-(isoxazol-5-ylmethoxy)-1H-indol-2-yl)methyl)-1-methylcyclopropane-1-carboxamide], the IC50 in assay [1] is 125 nM; in assay [2] it was 196 nM.
`Cc1cc2cc(CNC(=O)N3CCCC3)[nH]c2cc1OCc1cscn1` [Compound 531, N-((5-methyl-6-(thiazol-4-ylmethoxy)-1H-indol-2-yl)methyl)pyrrolidine-1-carboxamide]: the IC50 in assay [1] is 164 nM; in assay [2] it was 295 nM.
As to `CCC(=O)NCc1cc2cc(Cl)c(OCc3cscn3)cc2[nH]1` [Compound 146, N-((5-chloro-6-(thiazol-4-ylmethoxy)-1H-indol-2-yl)methyl)propionamide], the IC50 was 36 nM in assay [1] and 60 nM in assay [2].
As to `CC1(C(=O)NCc2cc3cc(Cl)c(OCc4ccsc4Cl)cc3[nH]2)CC1` [Compound 321, N-((5-chloro-6-((2-chlorothiophen-3-yl)methoxy)-1H-indol-2-yl)methyl)-1-methylcyclopropane-1-carboxamide], the results for the IC50 in assay [1] and in assay [2] were 379 nM and 891 nM, respectively.

By IC50 is commonly meant the point on the concentration scale where inhibition reaches its midpoint.
